Reference: paper PMC9674830, “A glutamine-based single α-helix scaffold to target globular proteins” (Nature Communications, 2022)

Assays:
Type in all cases: physicochemical
[1] = CD spectroscopy (helicity); conditions: 30 μM peptide, ratio taken as sign of monomeric helix
Protocol: Peptide samples for CD spectroscopy were diluted to a final concentration of 30 μM in a volume of 400 μL in either 20 mM phosphoric acid (pH 2.8) or sodium phosphate (pH 7.4) buffer. Spectra were obtained at 278 K (unless stated otherwise) in a Jasco 815 UV spectro-photopolarimeter with a 1 mm optical path cuvette using a data interval of 0.2 nm in the 190−260 nm range with a scanning speed of 50 nm min^−1 and 20 accumulations. A blank spectrum acquired on the pertaining buffer under the same experimental conditions was subtracted from the sample spectrum. Thermal denaturation experiments were performed by acquiring a single accumulation spectrum with the same parameters at 10 K intervals, with a temperature ramp speed of 10 K min^−1 and an equilibration time of 1 min.

[2] = Oligomeric state by SEC-MALS and native MS; conditions: SEC-MALS (and native MS where stated)
From the text: To analyze the origin of this behavior and exploit it for peptide design we studied four peptides of identical amino acid composition but with two potential Glni+4 → Leui interactions (pink arrows in Fig. 1a) at different relative positions. The first such interaction is common to all peptides and the second one is shifted 1 (peptide P1-5), 2 (P2-6), 3 (P3-7), or 5 (P5-9) positions towards the C-terminus. After confirming that they were monomeric under our experimental conditions by size exclusion chromatography coupled to multiple angle light scattering (SEC-MALS) (Supplementary Fig. 1d), we used solution-state nuclear magnetic resonance (NMR) spectroscopy to probe their structural properties by exploiting the quantitative dependence of ^13Cα and ^1Hα NMR chemical shifts on residue-specific helical propensity, where larger ^13Cα and lower ^1Hα shifts indicate higher helicity.
We then used CD spectroscopy to study the secondary structure of peptides containing two and three pairs of concatenated Glni+4 → Leui interactions, (P3-7)2 and (P3-7)3, and obtained that they are highly helical and monomeric (Θ222 nm/Θ208 nm < 1) (Fig. 1c, d). […]
These samples were treated with 400 μL of methanol to precipitate the serum proteins and centrifuged for 30 min at 277 K. The supernatant was filtered and analyzed by HPLC to calculate the percentage of intact peptide in the sample. […]

[3] = NMR residue-specific helical propensity (pHel, CheSPI from backbone chemical shifts); conditions: 278 K, pH 7.4, 100 μM; 9 contiguous residues for (P3-7)2, 16 for (P3-7)3
Protocol: Peptide samples for NMR spectroscopy were diluted to a final concentration of 100 μM in a volume of 400 μL in either 20 mM phosphoric acid (pH 2.8) or sodium phosphate (pH 7.4) buffer with added 10% v/v D2O and 10 μM DSS for internal chemical shift referencing, then filled into Shigemi tubes (Shigemi Co. Ltd, Tokyo, Japan). All NMR experiments were recorded at 278 K (unless stated otherwise) on either a Bruker Avance III 600 MHz or a Bruker Avance NEO 800 MHz spectrometer, both equipped with TCI cryoprobes, using TopSpin 4.0.8 for data acquisition (Bruker, Billerica, MA). Unlabeled synthetic peptides P1-5, P2-6, P3-7, P5-9 were characterized by two-dimensional homonuclear (TOCSY and NOESY) and heteronuclear (^1H-^13C HSQC) experiments. The TOCSY and NOESY mixing times were set to 70 and 200 ms, respectively. Water suppression was achieved by excitation sculpting[59] using a 2 ms long Squa100.1000 selective pulse. For peptide backbone resonance assignment, using uniformly ^15N,^13C labeled peptides, the following series of 3D triple resonance BEST-TROSY[60] experiments were acquired with 25% non-uniform sampling (NUS): HNCO, HN(CA)CO, HN(CO)CA, HNCA, and HN(CO)CACB. For some peptides, we resolved assignment ambiguities by also acquiring a 3D (H)N(CA)NH spectrum. Furthermore, 2D ^13C-detected CACO and CON experiments[61] were measured. […]

Sequence: KKPGASLAALQALQALQAAQAAKKY [(P3-7)2, Gln-based single α-helix scaffold peptide]
- Θ222 nm/Θ208 nm [1]: < 1
- Oligomeric state [2]: monomeric
- Residue-specific helical propensity (pHel) over contiguous residues [3]: > 0.9
